Source: ChEMBL document CHEMBL5120806, “Synthesis and biological evaluation of glucagon-like peptide-1 analogs with the C-terminal helix 3 of albumin-binding domain 3” (Bioorg Med Chem, 2022)
The source made the active and inactive calls. No cut-off for these calls is given here. Where a SMILES comes first, the peptide text is derived from it. [ ]: non-standard residue; d: D form. Aun = NCCCCCCCCCCC(=O)O; AEEA = NCCOCCOCC(=O)O; Aib = CC(C)(N)C(=O)O; Aoc = NCCCCCCCC(=O)O

Assays:
Albumin = Albumin (Homo sapiens, UniProt P02768); experiment: Binding affinity to albumin (unknown origin) by HPLC analysis
[1] = biological target: T1, Glucagon-like peptide 1 receptor (Homo sapiens, UniProt P43220); experiment: Binding affinity to GLP-1 receptor (unknown origin) assessed as binding rate constant by surface plasmon resonance analysis; details: filed as activator
Mus musculus [2] = experiment: Antidiabetic activity in mouse assessed as decrease in AUC (0 to 24hrs) glucose level at 30 nmol/kg, sc measured after 24 hrs; assay type: functional, organism-based
[3] = biological target: T1, Glucagon-like peptide 1 receptor; experiment: Binding affinity to GLP-1 receptor (unknown origin) assessed as dissociation rate constant by surface plasmon resonance analysis; details: filed as activator
[4] = biological target: T1, Glucagon-like peptide 1 receptor; experiment: Binding affinity to GLP-1 receptor (unknown origin) assessed as equlibrium constant by surface plasmon resonance analysis
[5] = biological target: T1, Glucagon-like peptide 1 receptor; experiment: Activation of GLP-1 receptor (unknown origin) expressed in CHO-K1 cells assessed as increase in cAMP accumulation by time-resolved fluorescence resonance energy transfer immunoassay; assay type: functional, cell-based
Mus musculus [6] = experiment: Antidiabetic activity in mouse assessed as decrease in blood glucose level at 30 nmol/kg, sc measured after 24 hrs; assay type: functional, organism-based
Mus musculus [7] = experiment: Antidiabetic activity in mouse assessed as decrease in body weight at 30 nmol/kg, sc measured after 24 hrs; assay type: functional, organism-based
[8] = biological target: T2, Glucagon-like peptide 1 receptor (Rattus norvegicus) (UniProt P32301); experiment: Activation of GLP-1 receptor in rat INS-1 cells assessed as cAMP accumulation at 10 nmol/L time-resolved fluorescence resonance energy transfer immunoassay; assay type: functional, cell-based; details: INS1, filed as activator
T2 sequence (whole entry): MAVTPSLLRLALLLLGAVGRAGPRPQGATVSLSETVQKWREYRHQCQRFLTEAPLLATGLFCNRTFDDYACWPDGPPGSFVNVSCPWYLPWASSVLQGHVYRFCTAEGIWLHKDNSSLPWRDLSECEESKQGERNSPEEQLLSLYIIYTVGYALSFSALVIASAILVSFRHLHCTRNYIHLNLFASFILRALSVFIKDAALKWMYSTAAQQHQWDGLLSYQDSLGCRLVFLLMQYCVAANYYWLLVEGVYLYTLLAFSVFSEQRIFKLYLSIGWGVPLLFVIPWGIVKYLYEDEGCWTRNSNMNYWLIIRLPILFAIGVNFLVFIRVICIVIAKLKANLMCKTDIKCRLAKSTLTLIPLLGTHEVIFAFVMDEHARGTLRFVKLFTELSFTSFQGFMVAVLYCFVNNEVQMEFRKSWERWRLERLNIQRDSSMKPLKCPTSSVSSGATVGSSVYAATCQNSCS

T1 sequence (P43220 whole entry): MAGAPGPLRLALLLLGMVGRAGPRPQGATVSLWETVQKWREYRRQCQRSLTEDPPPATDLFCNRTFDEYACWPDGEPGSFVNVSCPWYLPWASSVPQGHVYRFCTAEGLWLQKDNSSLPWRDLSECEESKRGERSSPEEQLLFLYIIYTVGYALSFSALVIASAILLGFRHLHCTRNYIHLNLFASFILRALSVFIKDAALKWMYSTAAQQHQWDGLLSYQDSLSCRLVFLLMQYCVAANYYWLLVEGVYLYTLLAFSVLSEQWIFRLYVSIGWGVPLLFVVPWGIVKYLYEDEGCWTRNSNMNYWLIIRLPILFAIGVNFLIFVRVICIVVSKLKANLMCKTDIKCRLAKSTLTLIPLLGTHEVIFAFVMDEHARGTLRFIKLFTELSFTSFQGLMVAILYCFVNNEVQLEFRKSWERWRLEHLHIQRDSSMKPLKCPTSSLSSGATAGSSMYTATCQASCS
Sequence of Albumin (P02768 whole entry): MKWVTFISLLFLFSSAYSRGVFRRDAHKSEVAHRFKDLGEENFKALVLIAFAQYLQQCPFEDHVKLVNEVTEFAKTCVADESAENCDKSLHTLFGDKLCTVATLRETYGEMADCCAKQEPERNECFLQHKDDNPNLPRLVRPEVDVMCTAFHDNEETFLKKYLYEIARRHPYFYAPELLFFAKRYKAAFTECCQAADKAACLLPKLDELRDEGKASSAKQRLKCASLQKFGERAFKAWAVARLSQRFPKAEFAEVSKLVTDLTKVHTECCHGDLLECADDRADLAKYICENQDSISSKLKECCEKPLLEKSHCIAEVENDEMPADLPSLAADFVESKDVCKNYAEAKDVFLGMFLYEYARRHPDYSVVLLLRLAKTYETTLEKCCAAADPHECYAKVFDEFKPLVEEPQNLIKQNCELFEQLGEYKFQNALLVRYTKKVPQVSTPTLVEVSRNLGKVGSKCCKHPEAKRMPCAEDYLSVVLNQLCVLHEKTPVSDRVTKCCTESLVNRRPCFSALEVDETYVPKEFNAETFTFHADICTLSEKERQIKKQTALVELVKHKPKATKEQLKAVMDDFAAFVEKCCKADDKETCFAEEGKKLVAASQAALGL

Row | Molecule | Activity (Albumin) | Ka [1] | Kdiss [3] | Kd [4] | EC50 [5] | Activity [8] | Activity (Mus musculus [2]) | Activity (Mus musculus [6]) | Activity (Mus musculus [7])
1 | H-[Aib]EGTFTSDVSSYLEGQAAKEFIAWLVKG[Aun][AEEA]GVKALIDEILAA-NH2 | 76.4% | 1.32 10^4/Ms | 1.97 10^-2/s | 1490 nM | 0.158 nM |  | Active | Active | Active
2 | SEMAGLUTIDE [listing 1 of 2 here] |  | 7.26 10^4/Ms | 3.2 10^-2/s |  |  |  | Active | Active | 
3 | SEMAGLUTIDE [listing 2 of 2 here] | > 99% |  |  |  |  |  |  |  | 
4 | CC[C@H](C)[C@H](NC(=O)[C@H](Cc1ccccc1)NC(=O)[C@H](CCC(=O)O)NC(=O)[C@H](CCCCN)NC(=O)[C@H](C)NC(=O)[C@H](C)NC(=O)[C@H](CCC(N)=O)NC(=O)CNC(=O)[C@H](CCC(=O)O)NC(=O)[C@H](CC(C)C)NC(=O)[C@H](Cc1ccc(O)cc1)NC(=O)[C@H](CO)NC(=O)[C@H](CO)NC(=O)[C@@H](NC(=O)[C@H](CC(=O)O)NC(=O)[C@H](CO)NC(=O)[C@@H](NC(=O)[C@H](Cc1ccccc1)NC(=O)[C@@H](NC(=O)CNC(=O)[C@H](CCC(=O)O)NC(=O)C(C)(C)N)[C@@H](C)O)[C@@H](C)O)C(C)C)C(=O)N[C@@H](C)C(=O)N[C@@H](Cc1c[nH]c2ccccc12)C(=O)N[C@@H](CC(C)C)C(=O)N[C@H](C(=O)N[C@@H](CCCCN)C(=O)NCC(=O)NCC(=O)N[C@H](C(=O)N[C@@H](CCCCN)C(=O)N[C@@H](C)C(=O)N[C@@H](CC(C)C)C(=O)N[C@H](C(=O)N[C@@H](CC(=O)O)C(=O)N[C@@H](CCC(=O)O)C(=O)N[C@H](C(=O)N[C@@H](CC(C)C)C(=O)N[C@@H](C)C(=O)N[C@@H](C)C(N)=O)[C@@H](C)CC)[C@@H](C)CC)C(C)C)C(C)C (H-[Aib]EGTFTSDVSSYLEGQAAKEFIAWLVKGGVKALIDEILAA-NH2) | 86.2% | 2.99 10^3(1/Ms) | 1.12 10^-2/s | 3750 nM | 0.0651 nM | Active | Active | Active | Active

Continued by falling Kd [4], values first:

Row | Activity (Albumin) | Ka [1] | Kdiss [3] | Kd [4] | EC50 [5] | Activity [8] | Molecule | Activity (Mus musculus [2]) | Activity (Mus musculus [6]) | Activity (Mus musculus [7])
5 | 89.2% | 7.53 10^3(1/Ms) | 1.1 10^-2/s | 1460 nM | 0.209 nM | Active | H-[Aib]EGTFTSDVSSYLEGQAAKEFIAWLVKG[Aun]GVKALIDEILAA-NH2 | Active | Active | Active
6 | 75.4% | 1.95 10^4/Ms | 1.94 10^-2/s | 994 nM | 0.132 nM |  | H-[Aib]EGTFTSDVSSYLEGQAAKEFIAWLVKG[AEEA]GVKALIDEILAA-NH2 |  | Active | 
7 | 65.6% | 3.57 10^4/Ms | 3.25 10^-2/s | 912 nM | 0.17 nM |  | H-[Aib]EGTFTSDVSSYLEGQAAKEFIAWLVKG[AEEA][AEEA]GVKALIDEILAA-NH2 | Active | Active | 
8 | 77.4% | 2.01 10^4/Ms | 1.41 10^-2/s | 700 nM | 0.204 nM |  | H-[Aib]EGTFTSDVSSYLEGQAAKEFIAWLVKG[Aoc]GVKALIDEILAA-NH2 | Active | Active | 
9 | 66.5% | 3.11 10^4/Ms | 1.65 10^-2/s | 532 nM | 0.135 nM |  | H-[Aib]EGTFTSDVSSYLEGQAAKEFIAWLVKG[Aoc][AEEA]GVKALIDEILAA-NH2 | Active | Active | 
